Test results reported in patent US20240216330A1, “COMBINATION TREATMENT METHODS OF MULTIPLE SCLEROSIS” (BIOGEN MA INC., priority 2021, published 2024).
Structures can show the parent of a compound that is named as a salt. Marks after values point to notes of the source that are not given here.

What was measured:
[1] = test system: MRL/LPR mice (autoimmune disease resembling systemic lupus erythematosus); assay: MRL/LPR mice model of lupus; format: in vivo; details: female MRL/LPR mice, oral BID for 11 weeks from 9 weeks of age; BIIB091 50 mg/kg, DRF 90 mg/kg
Description: MRL/MpJ-Fas^lppr/J (MRL-lpr) (hereinafter MRL/LPR mice) mice develop an autoimmune disease resembling systemic lupus erythematosus (SLE). These mice have a severe disease progression involving anti-DNA antibodies, fatal glomerulonephritis, vasculitis, skin lesions, lymphadenopathy and splenomegaly. The causative mutation in this strain of mice is a loss of function in the death receptor Fas and disease onset is accelerated in female mice as compared to males. For this reason, female mice were chosen for these experiments.
Female MRL/LPR mice were ordered from the Jackson laboratory and all experiments were conducted a Boulder Biopath.
Female mice were dosed orally beginning at 9 weeks of age with BIIB091 alone, DRF alone, BIIB091 and DRF in combination or the vehicle control twice daily (BID) for 11 weeks. BIIB091 was dosed at 50 mg/kg, while DRF was dosed at 90 mg/kg, respectively. Cyclophosphamide (CPA) was used as a positive control in the study and was administered through intraperitoneal injection (IP) once daily at 15 mg/kg. […]
The following serum cytokines and chemokines were assessed using Luminex assays: IL-1B, IL-2, IL-4, IL-5, IL-6, IL-10, IL-12, IL-13, IL-15, IL-17A, IL-17E, IL-17F, IL-21, IL-22, IL-23, IL-27, IL-28B, IL-31 and IL-33; sCD40L, GM-CSF, IFNγ, MIP-3α, TNFα and TNFβ. […]

[2] = cited from earlier work
[3] = test system: B cell-dependent experimental autoimmune encephalomyelitis (EAE); assay: Prophylactic B cell-dependent EAE, murine model of multiple sclerosis (hMOG1-125 immunization); format: in vivo, C57BL/6 mice; details: BIIB091 50 mpk and/or DRF 90 mpk p.o. BID; for End score +/- SD: EAE score scale 0 to 5, end of study Day 28; for MMS +/- SD (mean maximum score): EAE score scale 0 to 5; for MMS +/- SD (mean maximum score) / EAE incidence / Median day of onset (all mice): Day 0 to Day 27; for End % body weight +/- SD: end of study Day 28; for EAE incidence / Median day of onset (all mice): female C57BL/6 mice; for EAE incidence: 20 animals per group; for Median day of onset (all mice): study end Day 28
Description: The goal of the study is to compare efficacy of diroximel fumarate (Vumerity) alone, BIIB091 alone, and the combination diroximel fumarate and BIIB091 in B cell-dependent experimental autoimmune encephalomyelitis (EAE). B cells are required for experimental autoimmune encephalomyelitis (EAE) induced by immunization of female C57BL/6J mice with full length recombinant human myelin oligodendrocyte glycoprotein (MOG) hMOG1-125 in adjuvant (Oliver, A. R. et al. “Rat and human myelin oligodendrocyte glycoproteins induce experimental autoimmune encephalomyelitis by different mechanisms in C57BL/6 mice.” J Immunol (2003). 171(1): 462-468; Lyons, J. et al “B cells are critical to induction of experimental allergic encephalomyelitis by protein but not by a short encephalitogenic peptide”. Eur. J. Immunol. (1999), 29: 3432-3439). [table] Female mice at 9-13 weeks of age (age-matched within one week) were ordered from Taconic Biosciences and given standard water and chow ad libitum throughout the duration of the experiment. Mice were acclimated to the […] for at least 7 days prior to the start of the study. EAE was induced in all mice as follows: [table] Mice were injected subcutaneously at 2 sites in the back with the emulsion component (containing MOG1-125) of Hooke KitTM MOG1-125/CFA Emulsion PTX, catalog number EK-2160 (Hooke Laboratories, Lawrence MA). The first site of injection was in the upper back, approximately 1 cm caudal of the neck line. The second site was in the lower back, approximately 2 cm cranial of the base of the tail. The injection volume was 0.1 mL at each site. Within 2 hours of the injection of emulsion, and then again 24 hours after the injection of emulsion, the pertussis toxin component of the kit was administered intraperitoneally. Mice were assigned to groups in a balanced manner to achieve similar average weight across the groups at the start of the study (Day-1). Dosing volume of all treatments was 5 mL/kg. Both treatment compounds were formulated in the same vehicle: (0.5% HPMC E50 premium LV/0.2% Tween 20 pH 4 (50 mM Citrate Buffer) [table] Dosing of all mice started on Day 0 and continued through Day 27. Dosing for each treatment was at the same time (+/-1 hour) each dosing day. There were at least 30 and not more than 90 minutes between administration of Treatments 1 and 2. There were no less than 10 and no more than 14 hours between doses of the same article Readouts are EAE scores and body weight. Body weight were measured 3 times/week (Monday, Wednesday, Friday; weighing may be delayed 1 day if these fall on a major US holiday), starting on Day-1. Animals were scored daily starting from Day 7. All readouts continued until termination of the study. Scoring was performed blind, by a person unaware both of treatment and of previous scores for each mouse. EAE was scored on the scale of 0 to 5 according to scoring criteria in Table 3 below: [table] In-between scores were assigned when the clinical signs fall between two above defined scores. b. Statistical Analysis Hooke's standard statistical analysis for EAE studies was applied, according to Table 4 below. [table]

[4] = test system: BCR-mediated CD69 upregulation on CD19+ B cells; assay: CD69 assay in whole blood stimulated with anti-human IgD; format: cell-based; details: 30 minutes pre-incubation at 37° C., overnight anti-IgD stimulation

| SMILES | Efficacy in mice model of lupus [1] | MMF exposure ([2]; DRF 462 mg dose taken orally versus DMF 240 mg dose taken orally) | GI tolerability ([2]; compared to DMF) | End score +/- SD [3] | MMS +/- SD (mean maximum score) [3] | End % body weight +/- SD [3] | EAE incidence [3] [%^a] | Median day of onset (all mice) [3] | Inhibition of BCR-mediated CD69 upregulation ([4]; whole blood samples from MS patients not on treatment or treated with non-DMF DMTs) | Inhibition of BCR-mediated CD69 upregulation ([4]; whole blood samples from MS patients treated with DMF) |
| --- | --- | --- | --- | --- | --- | --- | --- | --- | --- | --- |
| COC(=O)/C=C/C(=O)OCCN1C(=O)CCC1=O [DRF, diroximel fumarate] | did not show efficacy | comparable to that of the DMF 240 mg dose | improved GI tolerability compared to DMF | 1.00 +/− 1.19^a | 1.45 +/− 1.52^a | 98.2% +/− 8.3% | 50.0 | >28.0^a* day | – | – |
| Cn1cc(Nc2nccc(-c3ccc4c(c3)CN(C3COC3)CC[C@H]4NC(=O)c3cn(C(C)(C)C)nn3)n2)cn1 [BIIB091, (R)-1-(tert-butyl)-N-(8-(2-((1-methyl-1H-pyrazol-4-yl)amino)pyrimidin-4-yl)-2-(oxetan-3-yl)-2,3,4,5-tetrahydro-1H-benzo[c]azepin-5-yl)-1H-1,2,3-triazole-4-carboxamide] | efficacious | – | – | 0.60 +/− 0.88^a | 1.13 +/− 1.38^a | 102.8% +/− 8.3%^a | 45.0 | >28.0^a* day | inhibited | inhibited |
